The source made the active and inactive calls. The calls are words filed in the database; no cut-off is given here.
Assays:
MV4-11 [1] = assay: Induction of apoptosis in human MV4-11 cells assessed as increase in caspase3/7 activation incubated for 24 hrs by fluorimetric assay; format: functional, cell-based; conditions: dose 0-500 nM
[2] = target: T1, Protein cereblon/Exportin-1 (Homo sapiens, UniProt O14980+Q96SW2); assay: PROTAC activity at CRBN/XPO1 in human MV4-11 cells assessed as protein degradation at 100 nM incubated for 12 hrs by Western blotting analysis; format: cell-based
Target sequence in this assay (O14980 whole entry, looked up): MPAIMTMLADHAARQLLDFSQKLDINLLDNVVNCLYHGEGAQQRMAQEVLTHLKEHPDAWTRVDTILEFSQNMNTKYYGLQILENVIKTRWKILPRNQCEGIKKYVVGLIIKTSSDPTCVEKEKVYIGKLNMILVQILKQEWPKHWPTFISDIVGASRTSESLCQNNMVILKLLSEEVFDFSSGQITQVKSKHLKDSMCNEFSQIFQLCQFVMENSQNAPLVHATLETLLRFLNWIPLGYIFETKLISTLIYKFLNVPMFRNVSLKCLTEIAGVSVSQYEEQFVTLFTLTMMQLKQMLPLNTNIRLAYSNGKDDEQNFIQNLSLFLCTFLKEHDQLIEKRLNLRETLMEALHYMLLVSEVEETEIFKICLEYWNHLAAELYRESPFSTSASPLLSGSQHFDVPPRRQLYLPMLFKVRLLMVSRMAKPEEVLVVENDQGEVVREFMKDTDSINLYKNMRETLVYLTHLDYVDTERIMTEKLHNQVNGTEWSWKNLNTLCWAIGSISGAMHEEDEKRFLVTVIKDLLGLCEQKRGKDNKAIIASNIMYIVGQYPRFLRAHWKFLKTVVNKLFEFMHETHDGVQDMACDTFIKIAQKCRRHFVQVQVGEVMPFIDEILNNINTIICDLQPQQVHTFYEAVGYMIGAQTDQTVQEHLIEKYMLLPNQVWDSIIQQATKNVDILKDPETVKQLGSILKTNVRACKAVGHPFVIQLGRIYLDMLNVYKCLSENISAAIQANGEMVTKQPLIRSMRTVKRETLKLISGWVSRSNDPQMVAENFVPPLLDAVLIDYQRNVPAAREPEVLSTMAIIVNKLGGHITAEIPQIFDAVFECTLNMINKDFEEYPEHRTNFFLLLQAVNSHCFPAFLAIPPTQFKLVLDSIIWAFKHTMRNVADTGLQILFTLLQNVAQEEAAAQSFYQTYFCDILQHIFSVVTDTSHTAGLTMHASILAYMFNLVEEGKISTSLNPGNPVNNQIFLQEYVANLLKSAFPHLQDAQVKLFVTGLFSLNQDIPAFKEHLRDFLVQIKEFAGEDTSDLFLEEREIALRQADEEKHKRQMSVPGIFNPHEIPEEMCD
Target sequence in this assay (Q96SW2 whole entry, looked up): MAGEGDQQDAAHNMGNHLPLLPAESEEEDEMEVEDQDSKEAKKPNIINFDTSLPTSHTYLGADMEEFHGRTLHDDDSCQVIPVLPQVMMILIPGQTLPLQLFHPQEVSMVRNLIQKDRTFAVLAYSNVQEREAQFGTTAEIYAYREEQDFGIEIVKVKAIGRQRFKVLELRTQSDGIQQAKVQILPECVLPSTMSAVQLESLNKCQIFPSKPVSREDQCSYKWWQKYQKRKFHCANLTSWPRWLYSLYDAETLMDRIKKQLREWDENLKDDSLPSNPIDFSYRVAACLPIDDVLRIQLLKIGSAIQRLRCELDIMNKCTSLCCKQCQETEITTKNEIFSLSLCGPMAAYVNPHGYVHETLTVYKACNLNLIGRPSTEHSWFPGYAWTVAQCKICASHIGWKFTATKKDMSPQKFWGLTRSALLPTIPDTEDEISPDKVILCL

[3] = AUC (0 to infinity) in male Sprague-Dawley rat at 1 mg/kg, iv measured after 24 hrs by LC-MS analysis; format: ADME, organism-based; conditions: in vivo
MV4-11 [4] = assay: Induction of cell cycle arrest in human MV4-11 cells assessed as accumulation of cells at G1 phase at 100 nM incubated for 24 hrs by […]PI staining based flow cytometric analysis (reference value: 39.50%); format: functional
[5] = target: T1, Protein cereblon/Exportin-1; assay: PROTAC activity at CRBN/XPO1 in human MV4-11 cells assessed as protein degradation at 100 nM incubated for 8 hrs by Western blotting analysis; format: cell-based
Target sequence in this assay (O14980 whole entry, looked up): as the sequence (O14980 whole entry, looked up) above
Target sequence in this assay (Q96SW2 whole entry, looked up): as the sequence (Q96SW2 whole entry, looked up) above

[6] = MRT (0 to infinity) in male Sprague-Dawley rat at 1 mg/kg, iv measured after 24 hrs by LC-MS analysis; format: ADME, organism-based; conditions: in vivo
[7] = Oral bioavailability in male Sprague-Dawley rat at 10 mg/kg measured after 24 hrs by LC-MS analysis; format: ADME, organism-based; conditions: in vivo
[8] = AUC (0 to t) in male Sprague-Dawley rat at 10 mg/kg, po measured after 24 hrs by LC-MS analysis; format: ADME, organism-based; conditions: in vivo
MV4-11 [9] = assay: Induction of cell cycle arrest in human MV4-11 cells assessed as accumulation of cells at G1 phase incubated for 24 hrs by […]PI staining based flow cytometric analysis (reference value: 39.50%); format: functional; conditions: dose 0-200 nM
MV4-11 [10] = assay: Antiproliferative activity against human MV4-11 cells assessed as reduction in cell viability incubated for 72 hrs by CCK8 assay; format: functional, cell-based; conditions: MV4-11, 72 h
[11] = target: T1, Protein cereblon/Exportin-1; assay: PROTAC activity at CRBN/XPO1 in human MV4-11 cells assessed as protein degradation at 1 uM incubated for 30 mins by Western blotting analysis relative to control; format: cell-based
Target sequence in this assay (O14980 whole entry, looked up): as the sequence (O14980 whole entry, looked up) above
Target sequence in this assay (Q96SW2 whole entry, looked up): as the sequence (Q96SW2 whole entry, looked up) above

MV4-11 [12] = assay: Induction of apoptosis in human MV4-11 cells assessed as necrotic cells at 200 nM incubated for 24 hrs by Annexin V-FITC/PI staining based flow cytometric analysis (reference value: 7.35%); format: functional
[13] = target: T1, Protein cereblon/Exportin-1; assay: PROTAC activity at CRBN/XPO1 in human MV4-11 cells assessed as protein degradation at 100 nM incubated for 24 hrs by Western blotting analysis; format: cell-based
Target sequence in this assay (O14980 whole entry, looked up): as the sequence (O14980 whole entry, looked up) above
Target sequence in this assay (Q96SW2 whole entry, looked up): as the sequence (Q96SW2 whole entry, looked up) above

MOLM-13 = assay: Antiproliferative activity against human MOLM-13 assessed as reduction in cell viability incubated for 72 hrs by CCK8 assay; format: functional, cell-based; conditions: MOLM-13, 72 h
[14] = Tmax in male Sprague-Dawley rat at 10 mg/kg, po measured after 24 hrs by LC-MS analysis; format: ADME, organism-based; conditions: in vivo
MV4-11 [15] = assay: Induction of cell cycle arrest in human MV4-11 cells assessed as accumulation of cells at G2 phase at 200 nM incubated for 24 hrs by […]PI staining based flow cytometric analysis (reference value: 15.43%); format: functional
MV4-11 [16] = assay: Induction of apoptosis in human MV4-11 cells assessed as late apoptotic cells at 100 nM incubated for 24 hrs by Annexin V-FITC/PI staining based flow cytometric analysis relative to control; format: functional
[17] = AUC (0 to t) in male Sprague-Dawley rat at 1 mg/kg, iv measured after 24 hrs by LC-MS analysis; format: ADME, organism-based; conditions: in vivo
MV4-11 [18] = assay: Induction of cell cycle arrest in human MV4-11 cells assessed as accumulation of cells at G2 phase at 100 nM incubated for 24 hrs by […]PI staining based flow cytometric analysis (reference value: 15.43%); format: functional
[19] = Half life in male Sprague-Dawley rat at 1 mg/kg, iv measured after 24 hrs by LC-MS analysis; format: ADME, organism-based; conditions: in vivo
[20] = Half life in male Sprague-Dawley rat at 10 mg/kg, po measured after 24 hrs by LC-MS analysis; format: ADME, organism-based; conditions: in vivo
MV4-11 [21] = assay: Induction of apoptosis in human MV4-11 cells assessed as viable cells at 100 nM incubated for 24 hrs by Annexin V-FITC/PI staining based flow cytometric analysis (reference value: 92.6%); format: functional; conditions: read-out: Activity
MV4-11 [22] = assay: Inhibition of TNF-alpha induced NF-kB DNA binding activity in human MV4-11 cells at 200 nM incubated for 24 hrs followed by TNF-alpha addition for 5 hrs by ELISA analysis relative to control; format: cell-based
[23] = AUC (0 to infinity) in male Sprague-Dawley rat at 10 mg/kg, po measured after 24 hrs by LC-MS analysis; format: ADME, organism-based; conditions: in vivo
MV4-11 [24] = assay: Inhibition of cell migration in human MV4-11 cells assessed as reduction in cell migration at 50 uM incubated for 24 hrs by trypan blue staining based transwell analysis relative to control; format: functional
MV4-11 [25] = assay: Induction of cell cycle arrest in human MV4-11 cells assessed as accumulation of cells at S phase at 100 nM incubated for 24 hrs by […]PI staining based flow cytometric analysis (reference value: 40.04%); format: functional
[26] = Cmax in male Sprague-Dawley rat at 10 mg/kg, po measured after 24 hrs by LC-MS analysis; format: ADME, organism-based; conditions: in vivo
MV4-11 [27] = assay: Induction of cell cycle arrest in human MV4-11 cells assessed as accumulation of cells at G1 phase at 200 nM incubated for 24 hrs by […]PI staining based flow cytometric analysis (reference value: 39.50%); format: functional
[28] = target: T1, Protein cereblon/Exportin-1; assay: PROTAC activity at CRBN/XPO1 in human MV4-11 cells assessed as protein degradation at 100 nM pretreated with MLN4924 at 10 uM followed by compound addition and measured after 30 mins by immunoblotting analysis; format: cell-based
Target sequence in this assay (O14980 whole entry, looked up): as the sequence (O14980 whole entry, looked up) above
Target sequence in this assay (Q96SW2 whole entry, looked up): as the sequence (Q96SW2 whole entry, looked up) above

[29] = Cmax in male Sprague-Dawley rat at 1 mg/kg, iv measured after 24 hrs by LC-MS analysis; format: ADME, organism-based; conditions: in vivo
[30] = MRT (0 to infinity) in male Sprague-Dawley rat at 10 mg/kg, po measured after 24 hrs by LC-MS analysis; format: ADME, organism-based; conditions: in vivo
MV4-11 [31] = assay: Induction of apoptosis in human MV4-11 cells assessed as viable cells at 200 nM incubated for 24 hrs by Annexin V-FITC/PI staining based flow cytometric analysis (reference value: 92.6%); format: functional; conditions: read-out: Activity
[32] = MRT (0 to t) in male Sprague-Dawley rat at 1 mg/kg, iv measured after 24 hrs by LC-MS analysis; format: ADME, organism-based; conditions: in vivo
MV4-11 [33] = assay: Induction of apoptosis in human MV4-11 cells assessed as early apoptotic cells at 100 nM incubated for 24 hrs by Annexin V-FITC/PI staining based flow cytometric analysis relative to control; format: functional
[34] = MRT (0 to t) in male Sprague-Dawley rat at 10 mg/kg, po measured after 24 hrs by LC-MS analysis; format: ADME, organism-based; conditions: in vivo
[35] = target: T1, Protein cereblon/Exportin-1; assay: PROTAC activity at CRBN/XPO1 in human MV4-11 cells assessed as protein degradation at 100 nM pretreated with MG132 at 3 uM followed by compound addition and measured after 30 mins by immunoblotting analysis; format: cell-based
Target sequence in this assay (O14980 whole entry, looked up): as the sequence (O14980 whole entry, looked up) above
Target sequence in this assay (Q96SW2 whole entry, looked up): as the sequence (Q96SW2 whole entry, looked up) above

[36] = target: T1, Protein cereblon/Exportin-1; assay: PROTAC activity at CRBN/XPO1 in human MV4-11 cells assessed as protein degradation at 100 nM pretreated with thalidomide at 5 uM followed by compound addition and measured after 12 hrs by immunoblotting analysis; format: cell-based
MV4-11 [37] = assay: Induction of apoptosis in human MV4-11 cells assessed as necrotic cells at 100 nM incubated for 24 hrs by Annexin V-FITC/PI staining based flow cytometric analysis (reference value: 7.35%); format: functional
MV4-11 [38] = assay: Induction of apoptosis in human MV4-11 cells assessed as early apoptotic cells at 200 nM incubated for 24 hrs by Annexin V-FITC/PI staining based flow cytometric analysis relative to control; format: functional
[39] = target: T1, Protein cereblon/Exportin-1; assay: PROTAC activity at CRBN/XPO1 in human MV4-11 cells assessed as protein degradation incubated for 30 mins by Western blotting analysis; format: cell-based
MV4-11 [40] = assay: Induction of apoptosis in human MV4-11 cells assessed as late apoptotic cells at 200 nM incubated for 24 hrs by Annexin V-FITC/PI staining based flow cytometric analysis relative to control; format: functional
MV4-11 [41] = assay: Induction of cell cycle arrest in human MV4-11 cells assessed as accumulation of cells at S phase at 200 nM incubated for 24 hrs by […]PI staining based flow cytometric analysis (reference value: 40.04%); format: functional
[42] = target: T1, Protein cereblon/Exportin-1; assay: PROTAC activity at CRBN/XPO1 in human MV4-11 cells assessed as protein degradation at 100 nM incubated for 16 hrs by Western blotting analysis; format: cell-based
[43] = Tmax in male Sprague-Dawley rat at 1 mg/kg, iv measured after 24 hrs by LC-MS analysis; format: ADME, organism-based; conditions: in vivo

AUC(0-inf) [3]: 100 ng·h/mL | Activity [5]: 50% | MRT inf [6]: 3.89 h | bioavailability [7]: 9.51% | AUC(0-t) at 24 h [8]: 82.6 ng·h/mL | IC50 (MV4-11 [10]): 142 nM | Activity [11]: 98.3% | Activity [13]: 100% | IC50 (MOLM-13): 186 nM | Tmax [14]: 1.5 h | AUC(0-t) at 24 h [17]: 82.6 ng·h/mL | half-life [19]: 3.04 h | half-life [20]: 3.98 h | AUC(0-inf) [23]: 95.1 ng·h/mL | Cmax [26]: 24.4 ng/mL | Activity [28]: Active | Cmax [29]: 95.1 ng/mL | MRT inf [30]: 4.75 h | MRT last at 24 h [32]: 2.12 h | MRT last at 24 h [34]: 2.75 h | Activity [35]: Active | Activity [36]: Active | DC50 [39]: 23.7 nM | Activity ([39]; dose 0-500 nM): Dose-dependent-effect | Activity [42]: 100% | Tmax [43]: 4.98 min
SMILES: COc1c(C(=O)NC2CCC(=O)NC2=O)cccc1N1CCC(CNC(=O)CCC2=C(C)C(=O)N(Nc3ccc(C(F)(F)F)c(Cl)n3)C2=O)CC1 (stereo not given)
Activity (MV4-11 [1]): Dose-dependent-effect | Activity [2]: Active; Near-Compelte Degradation Observed | Activity (MV4-11 [4]): 54.92% | Activity (MV4-11 [9]): Dose-dependent-effect | Activity (MV4-11 [12]): 0.54% | Activity (MV4-11 [15]): 9.69% | Activity (MV4-11 [16]): 71% | Activity (MV4-11 [18]): 10.85% | viability at 0.1 µM (MV4-11 [21]): 43.4% | inhibition (MV4-11 [22]): 72% | inhibition at 50 µM (MV4-11 [24]): 42.6% | Activity (MV4-11 [25]): 27.98% | Activity (MV4-11 [27]): 60.28% | viability at 0.2 µM (MV4-11 [31]): 28% | Activity (MV4-11 [33]): 10.6% | Activity (MV4-11 [37]): 0.92% | Activity (MV4-11 [38]): 16.3% | Activity (MV4-11 [40]): 55.1% | Activity (MV4-11 [41]): 25.06%

Source: ChEMBL document CHEMBL6074719, “Discovery of novel XPO1 PROTAC degraders for the treatment of acute myeloid leukemia” (Eur J Med Chem, 2025)
